Measurements from article PMC10210398, “Genomic, functional and structural analyses elucidate evolutionary innovation within the sea anemone 8 toxin family” (BMC Biology, 2023).
Bridge positions count the residues as written; N and C are the ends. Ends that are not written are not given here.

Test system: Drosophila melanogaster
Assay: Injection activity assay in Drosophila melanogaster
Assay type: in vivo
Settings: for flies dead / flies paralysed: n = 8; for number of flies dead / number of flies paralysed: of 8 flies
Method: The activity of the recombinant SA8 peptide in Drosophila melanogaster was assessed using an injection activity assay. The mass of female D. melanogaster used for this experiment ranged from 0.8 to 1.1 mg. Eight D. melanogaster were used as an injection control group and administered 50 nL of water. Five doses of SA8 (0.00005, 0.0005, 0.005, 0.05 and 0.5 µg per fly; 50 nL) were each administered to eight D. melanogaster (n total = 40), with observations of paralysis and mortality made at 2 and 24 h post-injection (Additional file 14: File S6). Dose–response data were analysed as described previously.

GYGKGRPGCYNHYDESICGGVIKDEHCKAGRGSRMGKFALKNCQFQCGLC (disulfide 9-47, 18-50, 27-43) [SA8]
did not result in paralysis or death: paralysis or death within 24 h, in words (0.5 µg per fly, injected)
0.0%: flies dead (5e-5 µg/fly, 2 h) | flies paralysed (5e-5 µg/fly, 2 h) | flies dead (5e-5 µg/fly, 24 h) | flies paralysed (5e-5 µg/fly, 24 h) | flies dead (0.0005 µg/fly, 2 h) | flies paralysed (0.0005 µg/fly, 2 h) | flies dead (0.0005 µg/fly, 24 h) | flies paralysed (0.0005 µg/fly, 24 h) | flies dead (0.005 µg/fly, 2 h) | flies paralysed (0.005 µg/fly, 2 h) | flies dead (0.005 µg/fly, 24 h) | flies paralysed (0.005 µg/fly, 24 h) | flies dead (0.05 µg/fly, 2 h) | flies paralysed (0.05 µg/fly, 2 h) | flies dead (0.05 µg/fly, 24 h) | flies paralysed (0.05 µg/fly, 24 h) | flies dead (0.5 µg/fly, 2 h) | flies paralysed (0.5 µg/fly, 2 h) | flies dead (0.5 µg/fly, 24 h) | flies paralysed (0.5 µg/fly, 24 h)
0: number of flies dead (5e-5 µg/fly, 2 h) | number of flies paralysed (5e-5 µg/fly, 2 h) | number of flies dead (5e-5 µg/fly, 24 h) | number of flies paralysed (5e-5 µg/fly, 24 h) | number of flies dead (0.0005 µg/fly, 2 h) | number of flies paralysed (0.0005 µg/fly, 2 h) | number of flies dead (0.0005 µg/fly, 24 h) | number of flies paralysed (0.0005 µg/fly, 24 h) | number of flies dead (0.005 µg/fly, 2 h) | number of flies paralysed (0.005 µg/fly, 2 h) | number of flies dead (0.005 µg/fly, 24 h) | number of flies paralysed (0.005 µg/fly, 24 h) | number of flies dead (0.05 µg/fly, 2 h) | number of flies paralysed (0.05 µg/fly, 2 h) | number of flies dead (0.05 µg/fly, 24 h) | number of flies paralysed (0.05 µg/fly, 24 h) | number of flies dead (0.5 µg/fly, 2 h) | number of flies paralysed (0.5 µg/fly, 2 h) | number of flies dead (0.5 µg/fly, 24 h) | number of flies paralysed (0.5 µg/fly, 24 h)
